Data: patent publication US12448389B2, “BRM targeting compounds and associated methods of use” (Prelude Therapeutics Incorporated, priority 2020, dated 2025)

How the values were obtained:
[1] = target: T1, SMARCA4-HiBiT (Homo sapiens, UniProt P51532); assay: SMARCA4 HiBiT degradation assay in HeLa cells; format: cell-based; conditions: 18 hours incubation; for DC50: read-out: HeLa-HiBit-SM4 DC50; for Dmax: HeLa, read-out: HeLa-HiBit-SM4 Dmax (%)
T1 construct: SMARCA4-HiBiT knock-in Hela monoclonal cell (CS3023226); host or cells: HeLa monoclonal knock-in line (CRISPR HiBiT knock-in at the endogenous locus, heterozygous)
Summary of the method: (§1)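 HeLa monoclonal lines with heterozygous HiBiT knock-in were seeded at 2500 cells/well in EMEM with 10% FBS and treated with compound for 18 h at 37 °C. Remaining tagged protein was measured by Nano-Glo HiBiT lytic luminescence after 30–60 min at RT, and values came from curve fitting.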

[2] = target: T2, SMARCA2-HiBiT (Homo sapiens, UniProt P51531); assay: SMARCA2 HiBiT degradation assay in HeLa cells; format: cell-based; conditions: 18 hours incubation; for DC50: read-out: HeLa_HiBit-SM2 DC50; for Dmax: HeLa, read-out: HeLa-HiBit-SM2 Dmax (%)
T2 construct: SMARCA2-HiBiT knock-in Hela monoclonal cell (CS302366); host or cells: HeLa monoclonal knock-in line (CRISPR HiBiT knock-in at the endogenous locus, heterozygous)
Summary of the method: as §1

T1 sequence (P51532 whole entry): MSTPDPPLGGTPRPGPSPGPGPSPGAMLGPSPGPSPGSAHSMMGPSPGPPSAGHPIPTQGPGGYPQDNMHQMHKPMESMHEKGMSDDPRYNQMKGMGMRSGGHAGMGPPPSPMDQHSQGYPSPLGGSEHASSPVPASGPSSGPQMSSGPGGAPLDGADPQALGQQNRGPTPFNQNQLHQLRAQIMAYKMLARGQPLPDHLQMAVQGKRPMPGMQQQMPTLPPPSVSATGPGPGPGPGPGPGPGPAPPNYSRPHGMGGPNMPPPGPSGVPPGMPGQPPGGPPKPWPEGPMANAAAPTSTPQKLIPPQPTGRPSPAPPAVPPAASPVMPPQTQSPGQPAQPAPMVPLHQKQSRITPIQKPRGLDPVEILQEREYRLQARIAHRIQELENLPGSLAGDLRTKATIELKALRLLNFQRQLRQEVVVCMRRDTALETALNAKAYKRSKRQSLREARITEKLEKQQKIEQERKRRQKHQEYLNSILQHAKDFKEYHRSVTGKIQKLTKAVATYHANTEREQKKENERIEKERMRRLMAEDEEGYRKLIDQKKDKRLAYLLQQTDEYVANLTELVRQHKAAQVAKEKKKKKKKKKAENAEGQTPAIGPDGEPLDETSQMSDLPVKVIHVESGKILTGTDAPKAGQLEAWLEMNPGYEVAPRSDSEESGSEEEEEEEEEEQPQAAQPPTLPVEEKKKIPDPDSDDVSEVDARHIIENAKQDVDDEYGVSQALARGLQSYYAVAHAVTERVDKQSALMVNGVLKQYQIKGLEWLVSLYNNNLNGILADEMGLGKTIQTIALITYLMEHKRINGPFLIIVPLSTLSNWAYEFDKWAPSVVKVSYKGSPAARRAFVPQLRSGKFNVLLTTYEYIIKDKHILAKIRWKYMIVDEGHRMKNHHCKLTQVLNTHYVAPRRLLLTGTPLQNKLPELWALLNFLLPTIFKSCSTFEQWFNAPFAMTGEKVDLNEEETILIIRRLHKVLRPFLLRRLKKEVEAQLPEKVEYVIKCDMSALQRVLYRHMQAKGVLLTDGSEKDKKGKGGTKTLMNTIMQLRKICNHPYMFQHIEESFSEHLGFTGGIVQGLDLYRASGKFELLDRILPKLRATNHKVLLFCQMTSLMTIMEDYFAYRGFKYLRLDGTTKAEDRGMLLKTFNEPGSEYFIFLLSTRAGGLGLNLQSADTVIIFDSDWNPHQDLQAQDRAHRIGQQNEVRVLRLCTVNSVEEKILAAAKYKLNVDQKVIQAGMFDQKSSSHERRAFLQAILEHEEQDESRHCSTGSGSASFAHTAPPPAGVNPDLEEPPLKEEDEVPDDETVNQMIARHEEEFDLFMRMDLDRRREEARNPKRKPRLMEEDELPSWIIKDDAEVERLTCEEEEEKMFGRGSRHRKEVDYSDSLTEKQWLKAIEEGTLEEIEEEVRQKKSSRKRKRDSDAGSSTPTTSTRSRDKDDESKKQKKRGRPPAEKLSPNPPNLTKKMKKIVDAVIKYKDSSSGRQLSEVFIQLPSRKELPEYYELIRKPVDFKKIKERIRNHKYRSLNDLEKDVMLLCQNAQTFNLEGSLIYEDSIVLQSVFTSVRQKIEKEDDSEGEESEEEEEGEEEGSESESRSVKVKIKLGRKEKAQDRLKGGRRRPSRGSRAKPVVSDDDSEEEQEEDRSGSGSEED
T2 sequence (P51531 whole entry): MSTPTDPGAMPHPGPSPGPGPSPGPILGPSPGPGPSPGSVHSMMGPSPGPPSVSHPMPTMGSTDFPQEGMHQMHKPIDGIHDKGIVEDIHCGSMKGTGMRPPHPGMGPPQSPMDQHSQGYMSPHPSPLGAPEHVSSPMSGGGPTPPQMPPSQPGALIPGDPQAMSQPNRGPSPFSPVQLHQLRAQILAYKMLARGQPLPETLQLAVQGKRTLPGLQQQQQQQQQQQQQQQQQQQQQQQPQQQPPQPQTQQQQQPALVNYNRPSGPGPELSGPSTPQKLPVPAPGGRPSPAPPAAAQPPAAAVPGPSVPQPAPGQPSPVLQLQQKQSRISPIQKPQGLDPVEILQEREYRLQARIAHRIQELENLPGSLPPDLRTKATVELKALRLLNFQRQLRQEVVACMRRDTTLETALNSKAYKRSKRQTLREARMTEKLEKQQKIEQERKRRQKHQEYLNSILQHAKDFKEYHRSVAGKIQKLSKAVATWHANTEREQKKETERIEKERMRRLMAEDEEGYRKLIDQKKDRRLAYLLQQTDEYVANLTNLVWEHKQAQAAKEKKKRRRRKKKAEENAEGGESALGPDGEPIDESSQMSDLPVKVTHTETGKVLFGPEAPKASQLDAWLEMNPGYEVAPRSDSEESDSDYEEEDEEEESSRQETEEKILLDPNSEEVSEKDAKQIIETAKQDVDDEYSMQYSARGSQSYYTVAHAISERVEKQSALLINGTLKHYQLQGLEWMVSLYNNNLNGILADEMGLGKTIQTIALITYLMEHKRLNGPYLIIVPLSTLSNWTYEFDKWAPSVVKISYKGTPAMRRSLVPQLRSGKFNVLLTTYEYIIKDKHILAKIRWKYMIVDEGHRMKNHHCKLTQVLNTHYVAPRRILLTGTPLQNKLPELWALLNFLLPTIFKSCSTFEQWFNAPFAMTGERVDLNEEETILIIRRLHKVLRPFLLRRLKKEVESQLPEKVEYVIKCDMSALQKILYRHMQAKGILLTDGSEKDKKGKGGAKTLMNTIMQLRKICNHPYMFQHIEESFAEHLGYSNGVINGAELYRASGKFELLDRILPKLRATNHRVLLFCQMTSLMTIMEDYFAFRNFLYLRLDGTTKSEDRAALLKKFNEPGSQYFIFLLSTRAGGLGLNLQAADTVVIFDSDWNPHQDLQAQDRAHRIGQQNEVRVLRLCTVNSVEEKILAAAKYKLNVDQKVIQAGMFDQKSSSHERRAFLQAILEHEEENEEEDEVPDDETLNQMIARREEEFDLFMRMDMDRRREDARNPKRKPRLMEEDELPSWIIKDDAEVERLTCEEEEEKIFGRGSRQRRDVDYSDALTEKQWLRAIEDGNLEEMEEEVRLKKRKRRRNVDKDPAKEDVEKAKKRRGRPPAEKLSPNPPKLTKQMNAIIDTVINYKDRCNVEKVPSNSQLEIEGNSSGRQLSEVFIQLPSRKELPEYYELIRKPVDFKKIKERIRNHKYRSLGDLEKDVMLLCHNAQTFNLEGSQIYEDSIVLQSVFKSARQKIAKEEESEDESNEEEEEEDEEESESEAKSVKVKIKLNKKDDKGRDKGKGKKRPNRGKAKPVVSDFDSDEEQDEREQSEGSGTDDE

| DC50 [1] [nM] | Dmax [1] [%] | DC50 [2] [nM] | Dmax [2] [%] | HeLa-HiBit-SM4 Dmax (%) [1] | SMILES |
| --- | --- | --- | --- | --- | --- |
| < 10 | > 85 | < 10 | > 85 | – | O=C1CCC(N2C(=O)c3ccc(N4CCC(CN5CCC6(CN7CCN8c9cc(-c%10ccccc%10O)nnc9NC[C@H]8C7)CC6C5)CC4)cc3C2=O)C(=O)N1 (stereo partly drawn) [Example 171, 2-(2,6-dioxopiperidin-3-yl)-5-[4-[[6-[[(10S)-4-(2-hydroxyphenyl)-1,5,6,8,12-pentazatricyclo[8.4.0.02,7]tetradeca-2,4,6-trien-12-yl]methyl]-3-azabicyclo[4.1.0]heptan-3-yl]methyl]piperidin-1-yl]isoindole-1,3-dione] |
| 10 to 100 | ≤ 50 | < 10 | 75 to 85 | – | O=C1CCC(N2C(=O)c3ccc(N4CCOC(CN5CCN(C(=O)N6CCN7c8cc(-c9ccccc9O)nnc8NC[C@H]7C6)CC5)C4)cc3C2=O)C(=O)N1 (stereo partly drawn) [Example 117, 2-(2,6-dioxopiperidin-3-yl)-5-(2-((4-((S)-2-(2-hydroxyphenyl)-6,6a,7,8,9,10-hexahydro-5H-pyrazino[1′,2′:4,5]pyrazino[2,3-c]pyridazine-8-carbonyl)piperazin-1-yl)methyl)morpholino)isoindoline-1,3-dione] |
| < 10 | – | < 10 | 75 to 85 | C (C=50%<Dmax<=75%) | O=C1CCC(N2C(=O)c3ccc(N4CC[C@@H](CN5C[C@@H]6[C@H](C5)[C@H]6CN5CCN6c7cc(-c8ccccc8O)nnc7NC[C@H]6C5)[C@H](F)C4)cc3C2=O)C(=O)N1 (stereo partly drawn) [Example 200, 2-(2,6-dioxopiperidin-3-yl)-5-[(3S,4S)-3-fluoro-4-[[(1S,5R)-6-[[(10S)-4-(2-hydroxyphenyl)-1,5,6,8,12-pentazatricyclo [8.4.0.02,7]tetradeca-2(7),3,5-trien-12-yl]methyl]-3-azabicyclo[3.1.0]hexan-3-yl]methyl]piperidin-1-yl]isoindole-1,3-dione] |
| < 10 | > 85 | < 10 | > 85 | – | CCC1CN(CC2CCN(c3ccc4c(c3)C(=O)N(C3CCC(=O)NC3=O)C4)CC2)CCN1C(=O)N1CCN2c3cc(-c4ccccc4O)nnc3NC[C@H]2C1 (stereo partly drawn) [Example 270, 3-(6-(4-((3-ethyl-4-((S)-2-(2-hydroxyphenyl)-6,6a,7,8,9,10-hexahydro-5H-pyrazino[1′,2′:4,5]pyrazino[2,3-c]pyridazine-8-carbonyl)piperazin-1-yl)methyl)piperidin-1-yl)-1-oxoisoindolin-2-yl)piperidine-2,6-dione] |
| < 10 | > 85 | < 10 | > 85 | – | O=C1CCC(N2C(=O)c3ccc(N4CCC(CN5CCC(F)(CN6CCN7c8cc(-c9ccccc9O)nnc8NC[C@H]7C6)CC5)CC4)cc3C2=O)C(=O)N1 (stereo partly drawn) [Example 175, 2-(2,6-dioxopiperidin-3-yl)-5-[4-[[4-fluoro-4-[[(10S)-4-(2-hydroxyphenyl)-1,5,6,8,12-pentazatricyclo[8.4.0.02,7]tetradeca-2,4,6-trien-12-yl]methyl]piperidin-1-yl]methyl]piperidin-1-yl]isoindole-1,3-dione] |
| 100 to 1000 | ≤ 50 | 10 to 100 | 75 to 85 | – | O=C1CCC(N2Cc3cc(OCCN4CCCC(CN5CCN6c7cc(-c8ccccc8O)nnc7NC[C@H]6C5)C4)ccc3C2=O)C(=O)N1 (stereo partly drawn) [Example 255, 3-(5-(2-(3-(((S)-2-(2-hydroxyphenyl)-5,6,6a,7,9,10-hexahydro-8H-pyrazino[1′,2′:4,5]pyrazino[2,3-c]pyridazin-8-yl)methyl)piperidin-1-yl)ethoxy)-1-oxoisoindolin-2-yl)piperidine-2,6-dione] |
| 10 to 100 | 75 to 85 | < 10 | 50 to 75 | – | CN(CC1CCN(CC2CCN(c3ccc4c(c3)C(=O)N(C3CCC(=O)NC3=O)C4=O)CC2)CC1)C1CCN2c3cc(-c4ccccc4O)nnc3NCC2C1 (stereo not shown) [Example 254, 2-(2,6-dioxopiperidin-3-yl)-5-(4-((4-(((2-(2-hydroxy-phenyl)-6,6a,7,8,9,10-hexahydro-5H-pyrido[1′,2′:4,5]pyrazino[2,3-c]pyridazin-8-yl)(methyl)amino)methyl)piperidin-1-yl)methyl)piperidin-1-yl)isoindoline-1,3-dione] |
| < 10 | > 85 | < 10 | > 85 | – | O=C1CCC(N2C(=O)c3ccc(N4CCC(CN5CCC6C(C5)C6CN5CCN6c7cc(-c8ccccc8O)nnc7NC[C@H]6C5)CC4)cc3C2=O)C(=O)N1 (stereo partly drawn) [Example 46, 2-(2,6-dioxopiperidin-3-yl)-5-(4-((7-(((S)-2-(2-hydroxyphenyl)-5,6,6a,7,9,10-hexahydro-8H-pyrazino[1′,2′:4,5]pyrazino[2,3-c]pyridazin-8-yl)methyl)-3-azabicyclo[4.1,0]heptan-3-yl)methyl)piperidin-1-yl)isoindoline-1,3-dione] |
| < 10 | > 85 | < 10 | > 85 | – | O=C1CCC(N2C(=O)c3cccc(N4CCC(N5CCC(N6CCN7c8cc(-c9ccccc9O)nnc8NC[C@H]7C6)CC5)CC4)c3C2=O)C(=O)N1 (stereo partly drawn) [Example 66, 2-(2,6-dioxopiperidin-3-yl)-4-(4-((S)-2-(2-hydroxyphenyl)-5,6,6a,7,9,10-hexahydro-8H-pyrazino[1′,2′:4,5]pyrazino[2,3-c]pyridazin-8-yl)-[1,4′-bipiperidin]-1′-yl) isoindoline-1,3-dione] |
| < 10 | > 85 | < 10 | > 85 | – | CN(C(=O)N1CCN2c3cc(-c4ccccc4O)nnc3NC[C@H]2C1)C1CCN(CC2CCN(c3ccc4c(c3)C(=O)N(C3CCC(=O)NC3=O)C4=O)CC2)CC1 (stereo partly drawn) [Example 138, (6aS)-N-(1-((1-(2-(2,6-dioxopiperidin-3-yl)-1,3-dioxoisoindolin-5-yl)piperidin-4-yl)methyl)piperidin-4-yl)-2-(2-hydroxyphenyl)-N-methyl-5,6,6a,7,9,10-hexahydro-8H-pyrazino[1′,2′:4,5]pyrazino[2,3-c]pyridazine-8-carboxamide] |
| < 10 | 75 to 85 | < 10 | > 85 | – | O=C1CCC(N2Cc3cc(N4CCC(CN5C[C@@H]6[C@H](C5)[C@H]6CN5CCN6c7cc(-c8ccccc8O)nnc7NC[C@H]6C5)CC4)ccc3C2=O)C(=O)N1 (stereo partly drawn) [Example 92, 3-(5-(4-(((1R,5S,6r)-6-(((S)-2-(2-hydroxyphenyl)-5,6,6a,7,9,10-hexahydro-8H-pyrazino[1′,2′:4,5]pyrazino[2,3-c]pyridazin-8-yl)methyl)-3-azabicyclo[3.1.0]hexan-3-yl)methyl)piperidin-1-yl)-1-oxoisoindolin-2-yl)piperidine-2,6-dione] |
| 10 to 100 | 50 to 75 | < 10 | 75 to 85 | – | O=C1CCC(N2C(=O)c3ccc(N4CCC(NC5CCN(C(=O)N6CCN7c8cc(-c9ccccc9O)nnc8NC[C@H]7C6)CC5)CC4)cc3C2=O)C(=O)N1 (stereo partly drawn) [Example 141, 2-(2,6-dioxopiperidin-3-yl)-5-(4-((1-((S)-2-(2-hydroxyphenyl)-6,6a,7,8,9,10-hexahydro-5H-pyrazino[1′,2′:4,5]pyrazino[2,3-c]pyridazine-8-carbonyl)piperidin-4-yl)amino)piperidin-1-yl)isoindoline-1,3-dione] |
| < 10 | > 85 | < 10 | > 85 | – | O=C1CCC(N2Cc3cc(C4CCN(CC5CCN(CCN6CCN7c8cc(-c9ccccc9O)nnc8NC[C@H]7C6)CC5)CC4)ccc3C2=O)C(=O)N1 (stereo partly drawn) [Example 213, 3-(5-(1-((1-(2-((S)-2-(2-hydroxyphenyl)-5,6,6a,7,9,10-hexahydro-8H-pyrazino[1′,2′:4,5]pyrazino[2,3-c]pyridazin-8-yl)ethyl)piperidin-4-yl)methyl)piperidin-4-yl)-1-oxoisoindolin-2-yl)piperidine-2,6-dione] |
| 10 to 100 | ≤ 50 | < 10 | 50 to 75 | – | O=C1CCC(N2C(=O)c3ccc(NCCN4CCN(C(=O)N5CCN6c7cc(-c8ccccc8O)nnc7NC[C@H]6C5)CC4)cc3C2=O)C(=O)N1 (stereo partly drawn) [Example 219, 2-(2,6-dioxopiperidin-3-yl)-5-((2-(4-((S)-2-(2-hydroxyphenyl)-6,6a,7,8,9,10-hexahydro-511-pyrazino[1′,2′:4,5]pyrazino[2,3-c]pyridazine-8-carbonyl)piperazin-1-yl)ethyl)amino) isoindoline-1,3-dione] |
| < 10 | 50 to 75 | < 10 | 50 to 75 | – | O=C1CCC(N2C(=O)c3ccc(N4CCC(CCN5C[C@@H]6[C@H](C5)[C@H]6CN5CCN6c7cc(-c8ccccc8O)nnc7NC[C@H]6C5)CC4)cc3C2=O)C(=O)N1 (stereo partly drawn) [Example 152, 2-(2,6-dioxopiperidin-3-yl)-5-(4-(2-((1R,5S,6r)-6-(((S)-2-(2-hydroxyphenyl)-5,6,6a,7,9,10-hexahydro-8H-pyrazino[1′,2′:4,5]pyrazino[2,3-c]pyridazin-8-yl)methyl)-3-azabicyclo[3.1.0]hexan-3-yl)ethyl)piperidin-1-yl)isoindoline-1,3-dione] |
| 10 to 100 | 75 to 85 | 10 to 100 | 50 to 75 | – | O=C1CCC(N2C(=O)c3ccc(N4CCC(F)(F)C(CN5C[C@@H]6[C@H](C5)[C@H]6CN5CCN6c7cc(-c8ccccc8O)nnc7NC[C@H]6C5)C4)cc3C2=O)C(=O)N1 (stereo partly drawn) [Example 55, 5-(4,4-difluoro-3-(((1R,5S,6r)-6-(((S)-2-(2-hydroxyphenyl)-5,6,6a,7,9,10-hexahydro-8H-pyrazino[1′,2′:4,5]pyrazino[2,3-c]pyridazin-8-yl)methyl)-3-azabicyclo[3.1.0]hexan-3-yl)methyl)piperidin-1-yl)-2-(2,6-dioxopiperidin-3-yl)isoindoline-1,3-dione] |
